Values of other authors, collected in patent publication US11253533B1, “Water dissolvable macrocyclic lactone cyclodextrin complexes” (MOUNTAIN VALLEY MD INC, priority 2020, dated 2022).

In the case of CC[C@H](C)[C@H]1O[C@]2(CC[C@@H]1C)C[C@@H]1C[C@@H](C/C=C(\C)[C@@H](O[C@H]3C[C@H](OC)[C@@H](O[C@H]4C[C@H](OC)[C@@H](O)[C@H](C)O4)[C@H](C)O3)[C@@H](C)/C=C/C=C3\CO[C@@H]4[C@H](O)C(C)=C[C@@H](C(=O)O1)[C@]34O)O2 [Ivermectin, (1R,4S,5'S,6R,6′R,8R,10E,12S,13S,14E,16E,20R,21R,24S)-6′-[(2S)-butan-2-yl]-21,24-dihydroxy-12-[(2R,4S,5S,6S)-5-[(2S,4S,5S,6S)-5-hydroxy-4-methoxy-6-methyloxan-2-yl]oxy-4-methoxy-6-methyloxan-2-yl]oxy-5′,11,13,22-tetramethylspiro[3,7,19-trioxatetracyclo[15.6.1.14,8.020,24]pentacosa-10,14,16,22-tetraene-6,2′-oxane]-2-one], the “maximum concentration of ivermectin” value (FR 3042412, without an organic solvent) is given as 2 mg per millileter of water, the “solubility of Ivermectin” value (U.S. Pat. No. 4,389,397, with organic solvents, no cyclodextrin) is given as 7% and the solubility in water (at 25 degrees Celsius) is given as “about 0.005 mg per ml”.
